# Target: T1, ΔF508-CFTR (Homo sapiens, UniProt P13569, DEL508-508)
# T1 construct: Primary lung epithelial cells homozygous for the Cystic Fibrosis-causing ΔF508 mutation were differentiated for a minimum of 4 weeks; endogenous in cells; host or cells: primary lung epithelial cells (hBE) homozygous for ΔF508, differentiated at an air-liquid interface
# Assay: hBE equivalent current (Ieq) assay: AUC of equivalent chloride current after forskolin/VX-770 in primary lung epithelial cells homozygous for ΔF508
# Format: cell-based
# Settings: relative to CFTR amplifier (Compound A)+VX-809 (3 uM), compound at 10 uM and Compound A at 3 uM, 24 h treatment
# In short: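 Readout is the increase over vehicle in equivalent chloride current AUC from forskolin/VX-770 addition to bumetanide, measured by current clamp at 36 °C after benzamil block of ENaC. Cultures were homozygous ΔF508 primary lung epithelium grown ≥4 weeks at air-liquid interface and exposed basolaterally to compound for 24 h.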
# T1 sequence (P13569 with tags, fused parts or gaps DEL508-508): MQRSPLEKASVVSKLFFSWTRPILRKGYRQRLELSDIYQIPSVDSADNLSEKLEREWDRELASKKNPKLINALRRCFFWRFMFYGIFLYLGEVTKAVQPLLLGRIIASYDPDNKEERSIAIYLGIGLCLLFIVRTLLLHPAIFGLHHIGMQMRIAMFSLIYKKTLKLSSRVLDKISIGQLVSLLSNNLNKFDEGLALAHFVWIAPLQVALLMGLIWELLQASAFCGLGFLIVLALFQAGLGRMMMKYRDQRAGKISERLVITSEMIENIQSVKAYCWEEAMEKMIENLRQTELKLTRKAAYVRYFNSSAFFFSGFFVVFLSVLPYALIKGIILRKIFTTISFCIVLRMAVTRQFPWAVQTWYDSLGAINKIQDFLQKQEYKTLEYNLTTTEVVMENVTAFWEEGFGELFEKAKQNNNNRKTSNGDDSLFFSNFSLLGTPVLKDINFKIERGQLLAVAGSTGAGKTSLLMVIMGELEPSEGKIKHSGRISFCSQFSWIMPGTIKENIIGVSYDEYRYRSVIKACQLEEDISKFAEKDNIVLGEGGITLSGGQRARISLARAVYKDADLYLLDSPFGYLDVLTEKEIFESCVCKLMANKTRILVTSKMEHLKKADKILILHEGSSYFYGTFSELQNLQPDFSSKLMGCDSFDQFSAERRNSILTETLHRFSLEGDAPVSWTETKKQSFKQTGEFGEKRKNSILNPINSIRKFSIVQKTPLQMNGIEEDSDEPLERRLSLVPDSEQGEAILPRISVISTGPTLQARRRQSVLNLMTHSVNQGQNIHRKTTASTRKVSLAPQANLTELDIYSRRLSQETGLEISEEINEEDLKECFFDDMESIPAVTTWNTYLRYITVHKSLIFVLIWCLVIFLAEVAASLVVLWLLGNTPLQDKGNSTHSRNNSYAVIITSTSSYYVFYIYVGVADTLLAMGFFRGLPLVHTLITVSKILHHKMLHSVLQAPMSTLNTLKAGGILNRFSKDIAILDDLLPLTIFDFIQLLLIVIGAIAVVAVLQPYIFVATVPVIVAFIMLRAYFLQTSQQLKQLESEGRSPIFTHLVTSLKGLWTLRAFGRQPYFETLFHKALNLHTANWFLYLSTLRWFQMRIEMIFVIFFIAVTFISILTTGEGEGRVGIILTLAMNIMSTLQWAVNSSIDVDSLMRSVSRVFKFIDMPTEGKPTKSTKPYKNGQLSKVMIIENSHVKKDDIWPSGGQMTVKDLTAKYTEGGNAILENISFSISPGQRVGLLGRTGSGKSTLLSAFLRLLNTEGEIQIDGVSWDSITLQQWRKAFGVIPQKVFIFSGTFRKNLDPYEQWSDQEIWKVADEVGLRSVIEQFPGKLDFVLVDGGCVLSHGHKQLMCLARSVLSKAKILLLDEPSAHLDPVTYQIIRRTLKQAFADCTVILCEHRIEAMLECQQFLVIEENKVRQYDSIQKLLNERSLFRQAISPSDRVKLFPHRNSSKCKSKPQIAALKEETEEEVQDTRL
row,Compound,Activity
1,Cc1c(-c2cc(C(=O)O)c3c(OC4CCCc5ccccc54)ccc(C)c3n2)oc2ccccc12 (centres unmarked) [Compound 335],++ (activity>50% of CFTR amplifier+VX-809 (3 uM) with compound at 10 uM and Compound A at 3 uM)
2,Cc1c(-c2cc(C(=O)O)c3c(OC4CCc5ccccc54)ccc(C)c3n2)oc2ccccc12 (centres unmarked) [Compound 336],++ (activity>50% of CFTR amplifier+VX-809 (3 uM) with compound at 10 uM and Compound A at 3 uM)
3,Cc1c(-c2cc(C(=O)[O-])c3c(OCC4CC(C)(C)OC(C)(C)C4)ccc(C)c3n2)sc2ccccc12.[Na+] [Compound 337],++ (activity>50% of CFTR amplifier+VX-809 (3 uM) with compound at 10 uM and Compound A at 3 uM)
4,Cc1c(-c2cc(C(=O)[O-])c3c(OCC4CC(C)(C)OC(C)(C)C4)ccc(C)c3n2)oc2ccccc12.[Na+] [Compound 338],++ (activity>50% of CFTR amplifier+VX-809 (3 uM) with compound at 10 uM and Compound A at 3 uM)
5,Cc1c(-c2cc(C(=O)[O-])c3c(OCC4COC4)ccc(C)c3n2)oc2ccccc12.[Na+] [Compound 343],++ (activity>50% of CFTR amplifier+VX-809 (3 uM) with compound at 10 uM and Compound A at 3 uM)
6,Cc1c(-c2cc(C(=O)[O-])c3c(OCC4COC4)ccc(C)c3n2)sc2ccccc12.[Na+] [Compound 346],++ (activity>50% of CFTR amplifier+VX-809 (3 uM) with compound at 10 uM and Compound A at 3 uM)
7,Cc1c(-c2cc(C(=O)O)c3c(OC(C)c4ccc5nccn5c4)ccc(C)c3n2)oc2ccccc12 (centres unmarked) [Compound 347],+ (activity<50% of an CFTR amplifier (Compound A)+VX-809 (3 uM) with compound at 10 uM and Compound A at 3 uM)
8,Cc1c(-c2cc(C(=O)[O-])c3c(O[C@H]4C[C@H](C5CCOCC5)C4)ccc(C)c3n2)oc2ccccc12.[Na+] [Compound 350],++ (activity>50% of CFTR amplifier+VX-809 (3 uM) with compound at 10 uM and Compound A at 3 uM)
9,Cc1c(-c2cc(C(=O)[O-])c3c(O[C@@H]4C[C@H]5CC[C@@H](C4)O5)ccc(C)c3n2)sc2ccccc12.[Na+] [Compound 352],++ (activity>50% of CFTR amplifier+VX-809 (3 uM) with compound at 10 uM and Compound A at 3 uM)
10,Cc1c(-c2cc(C(=O)[O-])c3c(O[C@H]4C[C@H]5CC[C@@H](C4)O5)ccc(C)c3n2)sc2ccccc12.[Na+] [Compound 353],++ (activity>50% of CFTR amplifier+VX-809 (3 uM) with compound at 10 uM and Compound A at 3 uM)
11,Cc1c(-c2cc(C(=O)[O-])c3c(O[C@@H]4C[C@H]5CC[C@@H](C4)O5)ccc(C)c3n2)oc2ccccc12.[Na+] [Compound 354],++ (activity>50% of CFTR amplifier+VX-809 (3 uM) with compound at 10 uM and Compound A at 3 uM)
12,Cc1c(-c2cc(C(=O)[O-])c3c(O[C@H]4C[C@H]5CC[C@@H](C4)O5)ccc(C)c3n2)oc2ccccc12.[Na+] [Compound 355],++ (activity>50% of CFTR amplifier+VX-809 (3 uM) with compound at 10 uM and Compound A at 3 uM)
13,Cc1c(-c2cc(C(=O)[O-])c3c(OC[C@@H]4C[C@H]5CC[C@@H](C4)O5)ccc(C)c3n2)oc2ccccc12.[Na+] [Compound 356],++ (activity>50% of CFTR amplifier+VX-809 (3 uM) with compound at 10 uM and Compound A at 3 uM)
14,Cc1c(-c2cc(C(=O)[O-])c3c(OC[C@H]4C[C@H]5CC[C@@H](C4)O5)ccc(C)c3n2)oc2ccccc12.[Na+] [Compound 357],++ (activity>50% of CFTR amplifier+VX-809 (3 uM) with compound at 10 uM and Compound A at 3 uM)
15,Cc1c(-c2cc(C(=O)[O-])c3c(OC[C@@H]4C[C@H]5CC[C@@H](C4)O5)ccc(C)c3n2)sc2ccccc12.[Na+] [Compound 358],++ (activity>50% of CFTR amplifier+VX-809 (3 uM) with compound at 10 uM and Compound A at 3 uM)
16,Cc1c(-c2cc(C(=O)[O-])c3c(OC[C@H]4C[C@H]5CC[C@@H](C4)O5)ccc(C)c3n2)sc2ccccc12.[Na+] [Compound 359],++ (activity>50% of CFTR amplifier+VX-809 (3 uM) with compound at 10 uM and Compound A at 3 uM)
17,Cc1c(-c2cc(C(=O)O)c3c(OC(C)c4ccc(S(N)(=O)=O)cc4)ccc(C)c3n2)oc2ccccc12 (centres unmarked) [Compound 360],++ (activity>50% of CFTR amplifier+VX-809 (3 uM) with compound at 10 uM and Compound A at 3 uM)

# Reference: US11136313B2, “Compounds, compositions, and methods for modulating CFTR” (Proteostasis Therapeutics, Inc., priority 2015, dated 2021)
